Results on 16 molecules are retold here after patent US7312330B2, “Bicycloheteroarylamine compounds as ion channel ligands and uses thereof” (Renovis, Inc., priority 2003, dated 2007).

One assay has as its target hVR1 (Homo sapiens, UniProt Q8NER1). Put plainly: Calcium imaging assay (Fura2) of VR1 antagonists, proton stimulation. Conditions: HEK 293 cells expressing hVR1; for % Inhibition @ 1 μM: calcium ion influx induced by proton stimulation (pH 5.7); for IC50: calcium ion influx induced by proton stimulation. It is filed as cell-based. The source says: VR1 protein is a heat-gated cation channel that exchanges about 10 calcium ions for every sodium ion resulting in neuronal membrane depolarization and elevated intracellular calcium ion levels. Therefore the functional activity of compounds at the VR1 receptor may be determined by measuring changes in intracellular calcium levels in 293 cells expressing capsaicin-insensitive VR1 receptor variants. A dual wavelength ratiometric dye, Fura2, was used as an indicator of relative levels of calcium ions in a 96 well format using a bench top scanning fluorometer with integrated fluidics and temperature control (Flex Station, Molecular Devices).
A dual wavelength ratiometric dye, Fura2, was used as an indicator of relative levels of [Ca2+] in a 96 well format using a bench top scanning fluorometer with integrated fluidics and temperature control (Flex Station, Molecular Devices).
HEK 293 cells expressing hVR1 were grown on PDL coated 96-well black-walled plates, in the presence of a DMEM medium containing 5% Penstrep, 5% Glutamax, 200 ug/mL Hygromycin, 5 μg/mL Blasticide and 10% heat inactivated FBS. Prior to assay, the cells were loaded with 5 μg/mL Fura2 in normal saline solution at 37° C. for 40 minutes. Cells were then washed with normal saline to remove the dye.
The assay consists of two stages; a pre-treatment phase followed by a treatment phase. In the pretreatment phase, 50 μl of a compound solution was added to the cells. Immediately following, 50 μl of the test compound in the presence of agonist (a saline solution plus 10 mM citric acid bufferd to pH 5.7 with HCl) was added. Fura2 was excited at […] to indicate relative calcium concentration. Changes in wavelength measurements were made throughout the course of the experiment in 4 second intervals over a period of 3 minutes. The fluorescence ratio from the excitations at […] was recorded for analysis. Responses were measured as peak fluorescence ratio after compound-agonist addition minus baseline fluorescence ratio prior to treatment and were calculated for each concentration tested using the SoftMaxPro software. Data was expressed as percentage inhibition calculated as follows: […]
A dose response curve was then determined, from which the ID50 of each compound was calculated.

The target in another assay is T1, HsVR1 (Homo sapiens, UniProt Q8NER1).
T1 construct: expressed in transfected cells; host or cells: Xenopus oocytes injected with HsVR1 RNA
The assay can be described thus: Two-electrode voltage clamp recording of capsaicin induced VR1 current in Xenopus oocytes. Conditions: 250 nM capsaicin induced current; Xenopus oocytes injected with HsVR1 RNA; read-out: EPHYS IC50. It is filed as cell-based. The protocol: Xenopus ovaries obtained from NASCO were isolated by enzymatic dissociation using collagenase (Worthington, 2 mg/ml). Oocytes were then individually injected with HsVR1 RNA (0.5 μg/μl). Injected oocytes are stored in standard oocyte incubation solution, ND96, containing 96 mM NaCl, 2 mM KCl, 1 mM MgCl2, 0.3 mM CaCl2 and 50 µg/ml Gentamicin at 16° C. Capsaicin induced VR1 current is observed in oocytes 4-5 days after injection. Eight oocytes are placed in the recording chambers. Each oocyte is impaled by 2 glass electrodes having resistances of 0.5 to 1 MOhm when filled with a 3 M KCl solution. Electrode advancement and oocyte impalement are under software control (OpusXpress 1.1, Axon Instruments). VR1 expression in the oocytes is verified using 250 nM capsaicin. Test solution delivery to the oocytes during the experiment is also under software control. The solutions are prepared in 96 well plates and robotically pipetted into the oocyte recording chambers by an 8 channel pipetter. Oocytes are exposed to several 250 μl applications of 250 nM capsaicin until a stable current amplitude is obtained with each application. A set of 96 well plates containing the test solutions is prepared so that the sequence of solution application to the oocyte is as follows: 250 μls of 250 nM capsaicin is followed by a several minute wash with standard oocyte saline. 1 ml of the test compound is then added at a particular test concentration, followed immediately by 250 μl of the compound at the same concentration plus 250 nM capsaicin. The capsaicin induced VR1 current is recorded in the presence and absence of test compound for each concentration. The standard test concentrations range from 0.3 to 2000 nM. Quantitative measurement of VR1 current block was carried out by calculating the area under the curve described by the inward current. The resulting numbers for capsaicin induced currents in the presence of increasing compound concentration are normalized to the maximum current obtained. These points are then plotted on a logarithmic scale and fitted by a Hill function. The IC50 values for each compound tested were then calculated from the resulting Hill fit. All compounds that inhibited capsaicin induced current greater than 50% were considered positives.
(In general: Two-electrode voltage clamp is typically applied to oocytes expressing channels or transporters.)

Sequence of hVR1 (Q8NER1 whole entry): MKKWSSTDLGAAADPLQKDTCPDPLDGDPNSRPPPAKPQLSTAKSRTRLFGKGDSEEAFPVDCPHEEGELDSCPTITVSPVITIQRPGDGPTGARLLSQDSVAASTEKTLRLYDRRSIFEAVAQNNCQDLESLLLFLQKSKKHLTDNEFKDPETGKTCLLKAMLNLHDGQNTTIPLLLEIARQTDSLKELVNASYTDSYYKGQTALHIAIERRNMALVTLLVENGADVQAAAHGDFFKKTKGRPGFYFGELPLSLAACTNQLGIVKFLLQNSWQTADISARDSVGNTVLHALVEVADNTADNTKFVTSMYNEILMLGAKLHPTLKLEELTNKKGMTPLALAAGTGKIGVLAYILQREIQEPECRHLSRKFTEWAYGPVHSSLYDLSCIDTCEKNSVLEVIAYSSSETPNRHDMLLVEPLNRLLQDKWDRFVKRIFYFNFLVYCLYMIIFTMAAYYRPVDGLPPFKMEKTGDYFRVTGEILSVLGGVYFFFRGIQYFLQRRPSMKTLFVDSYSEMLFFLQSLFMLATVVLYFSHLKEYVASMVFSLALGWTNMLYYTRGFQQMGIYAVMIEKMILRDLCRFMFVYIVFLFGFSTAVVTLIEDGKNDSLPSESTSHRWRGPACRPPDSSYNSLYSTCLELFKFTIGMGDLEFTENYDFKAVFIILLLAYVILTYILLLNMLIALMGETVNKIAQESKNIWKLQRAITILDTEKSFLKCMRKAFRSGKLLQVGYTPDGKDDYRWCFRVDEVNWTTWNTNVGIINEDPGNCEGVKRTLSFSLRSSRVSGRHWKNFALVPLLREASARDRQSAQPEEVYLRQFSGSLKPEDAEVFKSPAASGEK
T1 sequence (Q8NER1 whole entry): as above

As usually defined, the IC50 is the midpoint of a concentration-inhibition curve. On to `FC(F)(F)c1ccc(Nc2ncnc3c2CCN(c2ncccc2Cl)C3)cn1` [Example 20], for which, on hVR1, the “% Inhibition @ 1 μM” value is listed as “++++ (compound exhibited 76% or greater inhibition of calcium ion influx induced by proton stimulation)” and the IC50 was 101 to 500 nM. For the same molecule, at HsVR1, the IC50 is 101 to 500 nM.
For `CSc1nc2c(c(Nc3ccc(C(C)(C)C)cc3)n1)CCN(c1ncccc1Cl)C2` [Example 28, N-(4-tert-Butylphenyl)-7-(3-chloropyridin-2-yl)-5,6,7,8-tetrahydro-2-(methylthio)pyrido[3,4-d]pyrimidin-4-amine], on hVR1, the “% Inhibition @ 1 μM” value is reported as “++++ (compound exhibited 76% or greater inhibition of calcium ion influx induced by proton stimulation)” and the IC50 was less than 100 nM. The half-inhibitory concentration (IC50) at HsVR1 was less than 100 nM.
For the molecule `CC(C)(C)c1ccc(Nc2ncnc3c2CCN(c2ncccc2S(C)(=O)=O)C3)cc1` [Example 8, (4-tert-Butyl-phenyl)-[7-(3-methanesulfonyl-pyridin-2-yl)-5,6,7,8-tetrahydro-pyrido[3,4-d]pyrimidin-4-yl]-amine], the “% Inhibition @ 1 μM” value on hVR1 was “++++ (compound exhibited 76% or greater inhibition of calcium ion influx induced by proton stimulation)”. Also, the IC50 at hVR1 and at HsVR1 was 101 to 500 nM throughout.
Consider `CC(C)(C)c1ccc(Nc2ncnc3c2CCN(c2ncccc2Cl)C3)cc1.Cl` [Example 3, N-(4-tert-Butylphenyl)-7-(3-chloropyridin-2-yl)-5,6,7,8-tetrahydropyrido[3,4-d]pyrimidin-4-amine hydrochloride], for which the “% Inhibition @ 1 μM” value at hVR1 is given as “++++ (compound exhibited 76% or greater inhibition of calcium ion influx induced by proton stimulation)”. Also, the IC50 on hVR1 and on HsVR1 was less than 100 nM in each case.
For `Cc1ccccc1N1CCc2c(ncnc2Nc2ccc(C(F)(F)F)cc2)C1` [Example 45, 7-(o-Tolyl)-N-(4-(trifluoromethyl)phenyl)-5,6,7,8-tetrahydropyrido[3,4-d]pyrimidin-4-amine], the “% Inhibition @ 1 μM” value on hVR1 was “++++ (compound exhibited 76% or greater inhibition of calcium ion influx induced by proton stimulation)”. Besides, the IC50 at hVR1 and on HsVR1 was less than 100 nM in each case.
Regarding `Clc1cccnc1N1CCc2c(ncnc2NCCc2ccccc2)C1` [Example 39, 7-(3-Chloropyridin-2-yl)-5,6,7,8-tetrahydro-N-phenethylpyrido[3,4-d]pyrimidin-4-amine], on hVR1, the “% Inhibition @ 1 μM” value is reported as “++++ (compound exhibited 76% or greater inhibition of calcium ion influx induced by proton stimulation)” and the 50% inhibitory concentration (IC50) is 101 to 500 nM. For the same molecule, the half-inhibitory concentration (IC50) on HsVR1 was greater than 1000 nM.
Taken in the same sequence, the figures for `O=S(=O)(c1ccc(Nc2ncnc3c2CCN(c2ncccc2Cl)C3)cc1)C(F)(F)F` [Example 22, 7-(3-Chloropyridin-2-yl)-N-(4-(trifluoromethylsulphonyl)phenyl)-5,6,7,8-tetrahydropyrido[3,4-d]pyrimidin-4-amine] were “++++ (compound exhibited 76% or greater inhibition of calcium ion influx induced by proton stimulation)”, less than 100 nM and less than 100 nM.
As for `CN(C)c1nc2c(c(Nc3ccc(C(F)(F)F)cc3)n1)CCN(c1ncccc1Cl)C2` [Example 34, 7-(3-Chloropyridin-2-yl)-N^4-(4-(trifluoromethyl)phenyl)-5,6,7,8-tetrahydro-N^2N^2-dimethylpyrido[3,4-d]pyrimidine-2,4-diamine], at hVR1, the “% Inhibition @ 1 μM” value was “+ (compound exhibited 0-25% inhibition of calcium ion influx induced by proton stimulation)” and the IC50 was 101 to 500 nM. The 50% inhibitory concentration (IC50) on HsVR1 is 501 to 1000 nM.
Consider `CS(=O)(=O)c1cccnc1N1CCc2c(ncnc2Nc2ccc(S(=O)(=O)C(F)(F)F)cc2)C1` [Example 23, 7-(3-Methanesulphonylpyridin-2-yl)-N-(4-(trifluoromethylsulphonyl)phenyl)-5,6,7,8-tetrahydropyrido[3,4-d]pyrimidin-4-amine], for which, at hVR1, the “% Inhibition @ 1 μM” value was “++++ (compound exhibited 76% or greater inhibition of calcium ion influx induced by proton stimulation)”. Moreover, the half-maximal inhibitory concentration (IC50) on hVR1 and at HsVR1 was 101 to 500 nM in each case.
Turning to `CCOc1nc2c(c(Nc3ccc(C(F)(F)F)cc3)n1)CCN(c1ncccc1Cl)C2` [Example 48, 7-(3-Chloropyridin-2-yl)-2-ethoxy-N-(4-(trifluoromethyl)phenyl)-5,6,7,8-tetrahydropyrido[3,4-d]pyrimidin-4-amine], at hVR1, the “% Inhibition @ 1 μM” value is recorded as “++++ (compound exhibited 76% or greater inhibition of calcium ion influx induced by proton stimulation)”. In addition, the IC50 is 101 to 500 nM at hVR1 and less than 100 nM at HsVR1.
Taken in the same sequence, the figures for `FC(F)(F)c1ccc(Nc2ncnc3c2CCN(c2ncccc2C(F)(F)F)C3)cc1` [Example 12, (4-Trifluoromethyl-phenyl)-[7-(3-trifluoromethyl-pyridin-2-yl)-5,6,7,8-tetrahydro-pyrido[3,4-d]pyrimidin-4-yl]-amine] were “++++ (compound exhibited 76% or greater inhibition of calcium ion influx induced by proton stimulation)”, 101 to 500 nM and less than 100 nM.
In the case of `Clc1ccc(CNc2ncnc3c2CCN(c2ncccc2Cl)C3)cc1` [Example 41, N-(4-Chlorobenzyl)-7-(3-chloropyridin-2-yl)-5,6,7,8-tetrahydropyrido[3,4-d]pyrimidin-4-amine], on hVR1, the “% Inhibition @ 1 μM” value is listed as “++ (compound exhibited 26-50% inhibition of calcium ion influx induced by proton stimulation)” and the IC50 was in the range of 101 to 500 nM.
With `CSc1nc2c(c(Nc3ccc(C(F)(F)F)cc3)n1)CCN(c1ncccc1S(C)(=O)=O)C2` [Example 63, N-(4-(Trifluoromethyl)phenyl)-5,6,7,8-tetrahydro-7-(3-(methylsulfonyl)pyridin-2-yl)-2-(methylthio)pyrido[3,4-d]pyrimidin-4-amine], on hVR1, the “% Inhibition @ 1 μM” value is “+++ (compound exhibited 51-75% inhibition of calcium ion influx induced by proton stimulation)” and the IC50 lay within 101 to 500 nM.
For `Fc1cccnc1N1CCc2c(ncnc2Nc2ccc(C(F)(F)F)cc2)C1` [Example 11, [7-(3-Fluoro-pyridin-2-yl)-5,6,7,8-tetrahydro-pyrido[3,4-d]pyrimidin-4-yl]-(4-trifluoromethyl-phenyl)-amine], in that order: “++++ (compound exhibited 76% or greater inhibition of calcium ion influx induced by proton stimulation)” and 101 to 500 nM.
Consider `Clc1cccnc1N1CCc2c(ncnc2Nc2ccccc2)C1` [Example 18, 7-(3-Chloropyridin-2-yl)-N-(phenyl)-5,6,7,8-tetrahydropyrido[3,4-d]pyrimidin-4-amine], for which, on hVR1, the “% Inhibition @ 1 μM” value is reported as “+ (compound exhibited 0-25% inhibition of calcium ion influx induced by proton stimulation)” and the IC50 was greater than 1000 nM.
As to `FC(F)(F)c1cccc(CCNc2ncnc3c2CCN(c2ncccc2Cl)C3)c1` [Example 50, N-(3-(Trifluoromethyl)phenethyl)-7-(3-chloropyridin-2-yl)-5,6,7,8-tetrahydropyrido[3,4-d]pyrimidin-4-amine], the “% Inhibition @ 1 μM” value on hVR1 is “+ (compound exhibited 0-25% inhibition of calcium ion influx induced by proton stimulation)”.
